Several values for one entry are separate records, joined by “and”; a condition that tells them apart may be missing. Equal entries are not always repeated. Where two headings read alike, the source gives them in different places. Marks after values point to notes of the source that are not given here.
Assays:
[1] = test system: stage IIIB/IV nonsmall cell lung cancer; conditions: 290 patients; cited from earlier work
[2] = Intravesical suramin in dogs: bladder contents, bladder wall and plasma concentrations; type: in vivo; conditions: for concentration at 120 min: beagle, dog, bladder wall tissue, other: intravesical, 6 mg/ml
Method: Treatment protocol Five beagle dogs, weighing 9.0±0.4 kg, were used. The animals were cannulated in a cephalic vein for administration of anesthetics, and in a jugular vein for blood sampling. A urethral catheter was inserted for dose instillation and sampling of the bladder contents. […] Concentrations of the bladder contents and systemic plasma were sampled at frequent intervals for 120 minutes, at which time the bladder tissue was harvested and the animal sacrificed. Tissue sections of approximately 2 cm×2 cm surface area were cut from the bladder wall, and rapidly frozen on a flat stainless steel plate cooled on dry ice. The outer edges of the tissue samples were trimmed to avoid contamination with instillation fluid, and the frozen tissues cut into 40 μm sections parallel to the urothelial surface.

[3] = test system: telomere length in FaDu and PC3 cells; experiment: Telomere length in cultured cells after prolonged treatment (TALA / FISH); type: cell-based, human; conditions: prolonged treatment (7-15 weeks)
Description: Measurement of telomere length in cultured cells. Two methods were used to measure telomere length. The first method was a solution hybridization based telomere amount and length assay (TALA) (Gan, et al., Pharm. Res., 18:1655-1659, 2001) that measures the mean length of the terminal restriction fragments (TRF). The second method was fluorescence in situ hybridization (FISH) to detect telomere signal and to estimate the approximate length of individual telomere structures at the end of chromosomes. The FISH method is as described in U.S. patent application Ser. No. 09/587,662 and Gan, et al., 2001.
Treatment Protocol. Treatment with suramin or AZT was initiated after cells were allowed to attach to the growth surface in culture flasks. On the day of experiments, the culture medium was removed and replaced with inhibitor-containing medium.

[4] = human patients; cited from earlier work
[5] = biological target: T1, telomerase (Homo sapiens, UniProt O14746); experiment: Intracellular TRAP, telomerase activity in intact cells; type: cell-based; conditions: mean ± SD, read-out: IC50, inhibition of telomerase activity
Target sequence in this assay (O14746 whole entry, the tested form may be a part): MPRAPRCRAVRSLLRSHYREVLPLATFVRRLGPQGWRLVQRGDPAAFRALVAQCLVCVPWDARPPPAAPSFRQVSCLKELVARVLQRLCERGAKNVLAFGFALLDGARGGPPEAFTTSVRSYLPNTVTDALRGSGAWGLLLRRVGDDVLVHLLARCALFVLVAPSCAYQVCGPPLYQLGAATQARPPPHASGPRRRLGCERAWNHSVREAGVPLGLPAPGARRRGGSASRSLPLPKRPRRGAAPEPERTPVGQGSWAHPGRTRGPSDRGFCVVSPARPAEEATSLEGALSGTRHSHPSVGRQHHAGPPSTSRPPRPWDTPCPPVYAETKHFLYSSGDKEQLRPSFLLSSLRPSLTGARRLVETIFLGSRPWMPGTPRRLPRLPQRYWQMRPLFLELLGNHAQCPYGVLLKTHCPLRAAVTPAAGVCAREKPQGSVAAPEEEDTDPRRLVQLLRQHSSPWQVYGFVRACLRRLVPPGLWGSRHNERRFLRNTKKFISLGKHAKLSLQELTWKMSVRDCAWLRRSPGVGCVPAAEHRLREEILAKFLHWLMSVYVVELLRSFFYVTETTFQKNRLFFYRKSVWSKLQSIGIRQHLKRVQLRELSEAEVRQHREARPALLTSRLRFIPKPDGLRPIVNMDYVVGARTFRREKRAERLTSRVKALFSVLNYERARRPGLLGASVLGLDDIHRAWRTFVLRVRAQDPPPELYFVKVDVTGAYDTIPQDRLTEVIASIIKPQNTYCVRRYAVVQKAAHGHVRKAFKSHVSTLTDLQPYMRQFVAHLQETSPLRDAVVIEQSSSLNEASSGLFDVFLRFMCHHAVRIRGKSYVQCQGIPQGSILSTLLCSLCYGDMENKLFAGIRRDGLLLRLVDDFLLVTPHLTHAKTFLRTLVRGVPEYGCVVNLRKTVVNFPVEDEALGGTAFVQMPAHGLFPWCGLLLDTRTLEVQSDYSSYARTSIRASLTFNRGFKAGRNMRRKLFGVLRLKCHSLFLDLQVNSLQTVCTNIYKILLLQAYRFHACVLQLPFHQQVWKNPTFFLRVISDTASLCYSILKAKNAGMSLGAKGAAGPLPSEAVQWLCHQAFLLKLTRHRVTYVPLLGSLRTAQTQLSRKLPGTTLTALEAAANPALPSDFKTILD
Target sequence in this assay (O60832 whole entry partner, the tested form may be a part): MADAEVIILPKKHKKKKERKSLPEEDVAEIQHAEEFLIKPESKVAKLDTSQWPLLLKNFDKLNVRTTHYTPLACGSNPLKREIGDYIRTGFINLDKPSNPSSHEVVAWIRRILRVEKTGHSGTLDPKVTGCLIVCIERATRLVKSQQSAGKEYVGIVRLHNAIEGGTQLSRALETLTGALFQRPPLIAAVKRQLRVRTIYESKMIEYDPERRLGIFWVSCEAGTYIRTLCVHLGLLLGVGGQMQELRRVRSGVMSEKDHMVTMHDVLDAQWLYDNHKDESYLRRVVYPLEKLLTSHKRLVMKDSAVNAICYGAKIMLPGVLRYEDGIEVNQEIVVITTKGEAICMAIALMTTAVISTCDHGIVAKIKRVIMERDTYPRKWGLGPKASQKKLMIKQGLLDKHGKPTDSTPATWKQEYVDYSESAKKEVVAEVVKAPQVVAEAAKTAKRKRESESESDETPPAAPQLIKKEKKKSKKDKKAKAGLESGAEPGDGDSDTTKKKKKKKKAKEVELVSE
Target sequence in this assay (Q9NPE3 whole entry partner, the tested form may be a part): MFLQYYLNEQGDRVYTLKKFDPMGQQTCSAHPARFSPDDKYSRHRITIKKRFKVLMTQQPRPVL
Target sequence in this assay (Q9NX24 whole entry partner, the tested form may be a part): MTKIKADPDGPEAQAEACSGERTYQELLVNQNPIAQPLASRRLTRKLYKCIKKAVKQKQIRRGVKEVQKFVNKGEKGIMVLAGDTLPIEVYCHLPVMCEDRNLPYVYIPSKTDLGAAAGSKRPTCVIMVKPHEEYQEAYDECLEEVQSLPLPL
Target sequence in this assay (Q9NY12 whole entry partner, the tested form may be a part): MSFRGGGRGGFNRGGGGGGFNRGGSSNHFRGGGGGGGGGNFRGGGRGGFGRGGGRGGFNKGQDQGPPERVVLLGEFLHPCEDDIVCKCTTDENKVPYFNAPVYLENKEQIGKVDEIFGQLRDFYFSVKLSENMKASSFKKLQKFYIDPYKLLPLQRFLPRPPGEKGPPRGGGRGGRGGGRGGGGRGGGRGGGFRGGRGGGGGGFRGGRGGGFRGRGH

[6] = Suramin plasma pharmacokinetics in beagle dogs; type: in vivo; conditions: 6.75 mg/kg iv infusion over 30 minutes
Description: Treatment protocol. […] The animals were cannulated in the cephalic veins of both front legs.

[7] = biological target: T1, telomerase; experiment: Telomerase IC50 determination, general method; type: biochemical; conditions: read-out: IC50 against telomerase
Description: One method used to identify compounds of the invention that inhibit telomerase activity involves placing cells, tissues, or preferably a cellular extract or other preparation containing telomerase, in contact with several known concentrations of a test compound in a buffer compatible with telomerase activity. […] Other methods for determining the inhibitory concentration of a compound of the invention against telomerase can be employed as will be apparent to those of skill in the art based on the disclosure herein.
Target sequence in this assay (O14746 whole entry, the tested form may be a part): as the sequence (O14746 whole entry, the tested form may be a part) above

[8] = test system: FaDu tumors; experiment: Low-dose suramin, tumor size in mice implanted with FaDu tumors; type: in vivo; conditions: one of six animals; suramin 10 mg/kg ip twice-weekly for 6 weeks
Method: Treatment Protocol. Immunosuppressed mice were injected subcutaneously in the thigh area with 5×10^5 FaDu cells. […] Tumor sizes were observed twice-weekly.

[9] = test system: FaDu tumor; experiment: Telomere length by FISH in FaDu tumors implanted in mice; type: in vivo
Method: Treatment protocol. FaDu cells (0.5˜1×10^6 cells in a volume of 100 μl) were implanted subcutaneously in male BALB/c nu/nu mice. […] The first dose was administered immediately after tumor implantation, with repeat doses given twice a week thereafter. […] Frozen tissue sections were analyzed for telomere length in individual cells using fluorescent in situ hybridization. About 10 microscope fields at 400-fold magnification were randomly chosen for each section, and the percentage of tumor cells with attenuated or lost telomere signals were counted.

[10] = in vivo; conditions: BALB/c nu/nu, mouse, plasma, intravenous, 10 mg/kg
[11] = biological target: T1, telomerase; experiment: Modified TRAP assay, telomerase activity in cell lysate (cell extract); type: biochemical; conditions: mean ± SD, read-out: IC50, inhibition of telomerase activity
Method: (§1) Inhibition of telomerase activity in cell lysates and intact cells. The modified Telomeric Repeat Amplification Protocol (TRAP) assay (Gan, et al., Pharm. Res., 18:488-493, 2001) was used to detect telomerase activity in cell lysate. The telomerase activity in intact cells was measured using intracellular TRAP, as follows. Cells (1×10^5) were washed twice with PBS and centrifuged. The cell pellet was resuspended in 100 μl of serum-free RPMI 1640 containing 5 u/ml of Streptolysin O, 2 μM of TS primer, and 50 μM of dNTP, and incubated at room temperature for 5 min. The enzyme streptolysin O was used to increase the cell membrane permeability to the TS primer. Upon entering a cell, the TS primer was elongated by the intracellular telomerase in situ. The elongated TS primer was then isolated from the cells and used as the template for PCR amplification. Then 200 μl of RPMI 1640 medium containing 10% FBS was added to the cells to stop the permeating process. The mixture was incubated at 30° C. for 30 min to allow the extension of intracellular TS primer by telomerase. The cells were then lyzed and the cell lysates, which contained the already extended TS primer, was directly analyzed by TRAP.
Treatment Protocol. Treatment with suramin or AZT was initiated after cells were allowed to attach to the growth surface in culture flasks. […]
Target sequence in this assay (O14746 whole entry, the tested form may be a part): as above
Target sequence in this assay (O60832 whole entry partner, the tested form may be a part): as the sequence (O60832 whole entry partner, the tested form may be a part) above
Target sequence in this assay (Q9NPE3 whole entry partner, the tested form may be a part): as the sequence (Q9NPE3 whole entry partner, the tested form may be a part) above
Target sequence in this assay (Q9NX24 whole entry partner, the tested form may be a part): as the sequence (Q9NX24 whole entry partner, the tested form may be a part) above
Target sequence in this assay (Q9NY12 whole entry partner, the tested form may be a part): as the sequence (Q9NY12 whole entry partner, the tested form may be a part) above

[12] = test system: FaDu cells; experiment: Paclitaxel cytotoxicity (SRB method) in hTR antisense-transfected FaDu cells; type: cell-based; conditions: Homo sapiens, paclitaxel 96 hours
Method: Effect of hTR antisense on the cytotoxic effect of […]. Two clones of cells that were stably transfected with the hTR antisense were studied. The cytotoxic effect of paclitaxel was quantified using the SRB method, which measures the total cellular proteins. The cells transfected with hTR antisense were treated with IPTG for 44 (clone#1) to 57 (clone #2) days, and then with paclitaxel for 96 hours.

[13] = test system: human pharynx FaDu xenografts
Method: Xenografts were formed by subcutaneous injection of 106 viable tumor cells in 0.1 ml physiologic saline in the right and left flank areas, and were allowed to grow for about 14 days to reach a size of >15 mm^3 before drug treatment was started. […] The saline control group received injections of 200 μl/day of physiological saline for five consecutive days. The paclitaxel group received injections of 10 mg/kg/day paclitaxel dissolved in Cremophor and ethanol (i.e., Taxol) in a volume of 200 μl for five consecutive days. […] Animal weights and tumor sizes were measured on days 1, 3, 6, 8, and 10 after initiation of the paclitaxel treatment.
The antitumor effect of the drug treatments was measured in three ways. The first was the reduction in tumor size. Tumor sizes were determined by first preparing a mold of the extruding tumor using Jeltrate, a rapidly setting molding material, and then preparing and weighing the countermold. Second, the apoptotic effect was measured. The animals were euthanized on day 10, and the tumors were harvested and fixed in formalin. Histologic sections of 5-micron thickness were prepared and stained with hematoxylin and eosin. The tumor sections were evaluated morphologically for tumor cell density, and density of apoptotic cells. Because apoptotic cells disappear over time, the density of non-apoptotic cells is a secondary indicator of apoptosis. Cell densities were determined by counting the number of cells in four randomly selected microscopic fields at 400× magnification, using image analysis procedures (Song, et al., Proc. Natl. Acad. Sci. USA, 97:8658-8663, 2000). Third, the ability of drug treatment to prolong the survival time was measured. For this study, the animals were monitored for 100 days, or until moribundity, defined by a tumor length exceeding 1.0 cm, was reached.

[14] = test system: RCC45; experiment: 5-Fluorouracil inhibition of BrdU incorporation (ELISA), RCC45; type: cell-based
Method: (§2) A study was performed using two renal cell carcinoma cells (RCC45 and RCC54). 5-Fluorouracil was used as the chemotherapeutic agent. Cells were treated with 5-fluorouracil for 96 hours, with and without PPS. The drug effect was measured as inhibition of the incorporation of a DNA precursor (bromodeoxyuridine or BrdU) using ELISA.

[15] = test system: RCC54; experiment: 5-Fluorouracil inhibition of BrdU incorporation (ELISA), RCC54; type: cell-based
Method: as §2

[16] = test system: anticoagulation; conditions: cited from earlier work
[17] = fifteenth day of oral treatment, about 400 mg per meter squared per day; cited from earlier work
[18] = test system: renal cell carcinoma cells (RCC45 and RCC54); experiment: PPS single agent cytotoxicity, BrdU incorporation, renal cell carcinoma cells; type: cell-based
[19] = biological target: T1, telomerase; experiment: Telomerase activity after PPS exposure, modified quantitative TRAP assay; type: cell-based
Method: as §1
Target sequence in this assay (O14746 whole entry, the tested form may be a part): as the sequence (O14746 whole entry, the tested form may be a part) above
Target sequence in this assay (O60832 whole entry partner, the tested form may be a part): as the sequence (O60832 whole entry partner, the tested form may be a part) above
Target sequence in this assay (Q9NPE3 whole entry partner, the tested form may be a part): as the sequence (Q9NPE3 whole entry partner, the tested form may be a part) above
Target sequence in this assay (Q9NX24 whole entry partner, the tested form may be a part): as the sequence (Q9NX24 whole entry partner, the tested form may be a part) above
Target sequence in this assay (Q9NY12 whole entry partner, the tested form may be a part): as the sequence (Q9NY12 whole entry partner, the tested form may be a part) above
Treatment Protocol. Treatment with PPS was initiated after cells were allowed to attach to the growth surface in culture flasks. On the day of experiments, the culture medium was removed and replaced with inhibitor-containing medium. Drug concentrations of 0, 0.1, 1, 10, 100, 1000 μg/ml of PPS were employed. Telomerase activity was measured by the modified quantitative TRAP assay.

Which results are given for paclitaxel/carboplatin?
MST [1]: 8.1 months; TTP [1]: 3.1 months; complete response [1]: < 1%; overall response rate [1]: about 17%

What does the source list for `Cc1ccc(C(=O)Nc2ccc(S(=O)(=O)O)c3cc(S(=O)(=O)O)cc(S(=O)(=O)O)c23)cc1NC(=O)c1cccc(NC(=O)Nc2cccc(C(=O)Nc3cc(C(=O)Nc4ccc(S(=O)(=O)O)c5cc(S(=O)(=O)O)cc(S(=O)(=O)O)c45)ccc3C)c2)c1` [Suramin, suramin]?
suramin concentration in the bladder contents ([2]; 120 minutes after intravesical 6 mg/ml): 3.6 mg/mL; plasma concentrations ([2]; at all times, intravesical 6 mg/ml): less than 0.1 μg/ml; concentration at 120 min ([2]; at 0 mm (urethral surface), 120 minutes, read-out: bladder wall tissue concentration): ~80000 ng/g; concentration at 120 min ([2]; at approximately 2 mm depth, read-out: bladder wall tissue concentration): ~3000 ng/g; concentration at 120 min ([2]; remainder of the bladder wall, read-out: bladder wall tissue concentration): ~3000 ng/g; concentration at 120 min ([2]; summary of Example 13, read-out: concentrations in the targeted tissues after local administration): 5000 to 100000 ng/g; telomere shortening [3]: about 30%; half-life, first phase of triphasic plasma decline [4]: 5.5 h; half-life, second phase of triphasic plasma decline [4]: 4.1 days; half-life, third phase of triphasic plasma decline [4]: 78 days; total body clearance [4]: 0.0095 liter/hour/m^2; IC50 ([5]; FaDu, intact cell): 1700 ± 1000 nM; IC50 ([5]; MCF7, intact cell): 1400 ± 1100 nM; IC50 ([5]; PC3, intact cell): 2300 ± 900 nM; terminal half-life ([6]; 6.75 mg/kg): 13 days; half-life ([6]; beagle, dog, plasma, read-out: terminal half-life (converted)): 13 days; clearance ([6]; beagle, dog, plasma, read-out: total clearance (converted)): 2.1 mL/h/kg; IC50 [7]: < 10 µM; tumor outcome [8]: completely disappeared; bodyweight increase compared with saline ([9]; 10 mg/kg iv twice a week): undistinguishable rates of bodyweight increases; tumor establishment rate ([9]; 10 mg/kg iv twice a week from implantation): 100%; fraction of cells with a reduced or eliminated telomere signal ([9]; first two weeks of treatment, 10 mg/kg iv twice a week): approximately 10%; fraction of cells with a reduced or eliminated telomere signal ([9]; week 3, 10 mg/kg iv twice a week): approximately 40%; fraction of cells with a reduced or eliminated telomere signal ([9]; week 4, 10 mg/kg iv twice a week): 75%; fraction of cells with a reduced or eliminated telomere signal ([9]; week 5, 10 mg/kg iv twice a week): over 80%; fraction of cells with a reduced or eliminated telomere signal ([9]; week 6, 10 mg/kg iv twice a week): 95%; concentration at 72 h [10]: ~10 µM and ~14000 ng/mL; IC50 ([11]; MCF7, cell extract): 2800 ± 1500 nM; IC50 ([11]; PC3, cell extract): 1600 ± 700 nM

What does the source list for `CC(=O)O[C@H]1C(=O)[C@@]2(C)[C@H]([C@H](OC(=O)c3ccccc3)[C@]3(O)C[C@H](OC(=O)[C@H](O)[C@@H](NC(=O)c4ccccc4)c4ccccc4)C(C)=C1C3(C)C)[C@]1(OC(C)=O)CO[C@@H]1C[C@@H]2O` [paclitaxel]?
IC50 ([12]; 96 h, +IPTG cells, read-out: IC50 of paclitaxel, clone #1): 2.42 nM; IC50 ([12]; 96 h, +IPTG cells, read-out: IC50 of paclitaxel, clone #2): 2.53 nM; IC50 ([12]; 96 h, +antisense cells (no IPTG), read-out: IC50 of paclitaxel, clone #1): 2.46 nM; IC50 ([12]; 96 h, +antisense cells (no IPTG), read-out: IC50 of paclitaxel, clone #2): 2.87 nM; IC50 ([12]; 96 h, +sense +IPTG cells, read-out: IC50 of paclitaxel, clone #1): 2.56 nM; IC50 ([12]; 96 h, +sense +IPTG cells, read-out: IC50 of paclitaxel, clone #2): 2.21 nM; IC50 ([12]; 96 h, Control cells, read-out: IC50 of paclitaxel, clone #1): 2.04 nM; IC50 ([12]; 96 h, Control cells, read-out: IC50 of paclitaxel, clone #2): 2.05 nM; IC50 ([12]; +antisense +IPTG cells (IPTG 44 days), read-out: IC50 of paclitaxel, clone #1): 1.3 nM; IC50 ([12]; +antisense +IPTG cells (IPTG 57 days), read-out: IC50 of paclitaxel, clone #2): 1.33 nM; median time to reach moribundity ([13]; Kaplan Meier analysis, monitored for 100 days): 42 days; % Apoptotic cells per tumor ([13]; day 10 tumors, Mean ± SD): 30 ± 17%^a; Number of apoptotic cells per 400x field ([13]; day 10 tumors, Mean ± SD): 66 ± 34^a; Number of nonapoptotic cells per 400x field ([13]; day 10 tumors, Mean ± SD): 168 ± 53^a; End-of-experiment body weight, % of pretreatment value ([13]; mouse, in vivo): 97 ± 6^a % of pretreatment value; body weight loss compared to the pretreatment weight ([13]; mouse, in vivo): < 3%; tumor-free survivors ([13]; of 12 animals): did not show tumor-free survivors; toxicity-related death ([13]; single agents): no toxicity-related death

For `O=c1[nH]cc(F)c(=O)[nH]1` [5-fluorouracil], which IC50 ([14]; RCC45, No PPS) is on record?
Its IC50 is 7.58 µM.

What about the IC50 ([14]; RCC45, With 10 μg/ml PPS) of the same compound?
Its IC50 is 5.15 µM.

What about the IC50 ([15]; RCC54, No PPS) of the same compound?
The IC50 was 7.27 µM.

What about the IC50 ([15]; RCC54, With 10 μg/ml PPS) of the same compound?
Its IC50 is 4.65 µM.

And the IC50 ([15]; RCC54, With 10 μg/ml PPS plus 30 μM suramin)?
The IC50 was 2.34 µM.

What about the IC50 ([15]; RCC54, With 100 μg/ml PPS) of the same compound?
The IC50 was 3.58 µM.

With pentosan polysulfate [PPS] as the compound, how does the “concentrations at which anticoagulation is found” value [16] read?
Its value is “above 1 μg/ml”.

What about the plasma concentrations [17] of the same compound?
The plasma concentrations was 200 to 460 ng/mL.

And the “IC50 of PPS as a single agent” value ([18]; 96 hours, BrdU incorporation)?
Its value is ~1,400 μg/ml.

And the “cytotoxicity of PPS” value ([18]; at 10 and 100 μg/ml)?
Its value is “no cytotoxicity”.

What about the “concentration resulting in 50% inhibition of telomerase activity” value ([19]; FaDu cells) of the same compound?
The value was 0.56 µg/mL.

What about the “concentration resulting in 50% inhibition of telomerase activity” value ([19]; SKOV-3 cells) of the same compound?
Its value is 0.60 µg/mL.

And the “concentrations resulting in 80% inhibition of telomerase activity” value ([19]; both cells (FaDu and SKOV-3))?
Its value is “less than 10 μg/ml”.

What about the “concentrations resulting in 90% inhibition of telomerase activity” value ([19]; both cells (FaDu and SKOV-3)) of the same compound?
Its value is “less than 100 μg/ml”.

What about the “concentrations required for 50% inhibition of telomerase activity” value ([19]; summary of Example 3) of the same compound?
Its value is 0.5 to 0.6 µg/mL.

Source: US20050282893A1 (priority 2004, published 2005)
